{"source": "patent US10060907B2", "about": "“Redoxindicators” (priority 2014, dated 2018)", "key": {"[1]": {"assay": "Cyclic voltammetry (CV) studies of the redoxindicators", "format": "physicochemical", "settings": "vs Ag/AgCl, 0.9% NaCl at pH 7, phosphate buffer, Au working electrode, scan rate 100 mVs^−1", "method": "The CVs of the compounds synthesized in example 6-7 were recorded vs. the Ag/AgCl reference electrode in a phosphate buffer pH 7 (Table 4).\nE/mV vs Ag/AgCl, 0.9% NaCl at pH 7, phosphate buffer, Au working electrode, scan rate 100 mVs^−1"}, "Solubility in water": {"assay": "Solubility in water", "format": "physicochemical"}, "[2]": {"system": "glucose dehydrogenase 2 (GlucDH2)", "assay": "Determination of glucose with GlucDH2/NAD and an indicator", "format": "biochemical", "settings": "0.5 mM indicator, NAD/GlucDH2, glucose 385 μM, 100 mM phosphate buffer pH 7", "method": "The following were mixed in a cuvette: 500 μL of 1.0 mM solution of an indicator (1-methyl-6-[(E)-2-(1,3,3-trimethyl-3H-indolium-2-yl)vinyl]quinolinium iodide trifluoromethanesulfonate) in 100 mM phosphate buffer pH 7, 500 μL of glucose dehydrogenase 2 (GlucDH2) solution (in 100 mM phosphate buffer pH 7 containing 4.0 mM NAD^+) at a concentration of 491 U/ml, 40 μL of 10 mM solution of glucose in distilled water. A UV/Vis spectrum (300-1000 nm) was recorded every 1 min for a 10 min after addition of glucose (resolution 1 nm) (FIG. 4)."}, "[3]": {"assay": "Reaction of an indicator with NADH, UV/Vis of the reduced form", "format": "physicochemical", "settings": "for UV/Vis reduced form, λmax after reduction with NADH: 50 mM phosphate buffer pH = 7; for UV-Vis λmax after reduction with NADH: water", "method": "The following were mixed in a cuvette: 50 μL of 10 mM solution of an indicator (1-methyl-3-[(E)-2-(1,3,3-trimethyl-3H-indolium-2-yl)ethenyl]quinolinium iodide trifluoromethanesulfonate) in distilled water, 950 μL of 50 mM phosphate buffer pH 7, 2 μL of 10 mM NADH solution in distilled water. A UV/Vis spectrum (400-1000 nm) was recorded every 7.5 sec for a 1 min after addition of NADH (resolution 2 nm) (FIG. 1). No further color change could be measured after 52.5 sec."}, "[4]": {"assay": "Evaluation of the reaction rates with ascorbate", "settings": "sodium ascorbate", "method": "(§1) Two solutions of the redoxindicator 1-methyl-6-((E)-3-oxo-3-phenyl-propenyl)-quinolinium methosulfate (5.00 mg, 0.013 mmol) in 1.00 ml water were each treated with an excess of NADH (disodium salt) or sodium ascorbate, respectively. […] After a few minutes, a larger amount of an orange precipitate was obtained, probably the insoluble dihydrochinoline. […] Even after 16 h no precipitate was found.\n(§2) Two solutions of the redoxindicators 1-methyl-3-[(E)-2-(1,3,3-trimethyl-3H-indolium-2-yl)ethenyl]quinolinium iodide trifluoromethanesulfonate (0.005 mmol) in 1.00 ml of 50 mM phosphate buffer pH 7 were each treated with 2 μL of 10 mM NADH (disodium salt) or sodium ascorbate solutions in distilled water, respectively. The absorbance at 535 nm was measured in relation to time (FIG. 3)."}, "[5]": {"assay": "Evaluation of the reaction rates with NADH", "settings": "for Colour change of the solution treated with NADH: NADH (disodium salt); for Turnover rates with NADH compared with ascorbate: NADH vs ascorbate", "method": "as §1, §2"}, "[6]": {"assay": "Fluorometric determination of NADH", "settings": "20 μM indicator, 4 μM NADH, 10 mM PIPES pH 7, excitation at 535 nm", "method": "The following were mixed in a cuvette: 2 μL of 10 mM solution of an indicator (1-methyl-3-[(E)-2-(1,3,3-trimethyl-3H-indolium-2-yl)ethenyl]quinolinium iodide trifluoromethanesulfonate) in distilled water, 1000 μL of 10 mM PIPES buffer pH 7, 0.5-4 μL of 1 mM NADH solution in distilled water. The mixture was incubated for 30 min at room temperature. Fluorescence (550-800 nm) was recorded using excitation at 535 nm. (FIG. 10, 11)."}, "HEK-293 cells": {"system": "HEK-293 cells", "assay": "Cell viability testing, confocal fluorescence microscopy", "format": "cell-based", "settings": "20 μM", "method": "Viable HEK-293 cells and 4% paraformaldehyde killed HEK-293 cells were incubated with 1-methyl-3-[(E)-2-(1,3,3-trimethyl-3H-indolium-2-yl)ethenyl]quinolinium iodide trifluoromethanesulfonate (20 μM) in 10 mM PBS pH 7 at 37 C. Confocal fluorescence microscope images were recorded at 611 nm using excitation at 561 nm. […] The resulting cells retained viability for at least 24 h."}, "[7]": {"assay": "Evaluation of extinction coefficient under pseudo-first-order reaction conditions", "format": "physicochemical", "settings": "535 nm, 50 mM phosphate buffer pH 7, from slope of ΔAbs vs initial NADH", "method": "The following were mixed in a cuvette: 100 μL of 10 mM solution of 1-methyl-3-[(E)-2-(1,3,3-trimethyl-3H-indolium-2-yl)ethenyl]quinolinium iodide trifluoromethanesulfonate in distilled water, 900 μL of 50 mM phosphate buffer pH 7, 1-3 μL of 10 mM NADH in distilled water. Change in absorbance at 535 nm was recorded after 5 min, when no further color change could be measured (FIG. 3, 9).\nThis ε value is nine times greater than those of the reduced form of MTT (Czerlinski, G. H.; et al; Journal of Biochemical and Biophysical Methods 1988, 15, 241)."}}, "note": "Read-outs that look alike come from different tables or passages of the source."}
{"smiles": "C[N+]1=C(/C=C/c2ccc3c(ccc[n+]3C)c2)C(C)(C)c2ccccc21.O=S(=O)([O-])C(F)(F)F.[I-]", "note": "[drawing 52]", "values": [{"measurement": "Reduction potential", "setting": "[1]", "result": "−634", "unit": "mV"}]}
{"smiles": "C[N+]1=C(/C=C/c2ccc3c(ccc[n+]3C)c2)C(C)(C)c2ccccc21.O=S(=O)([O-])C(F)(F)F.[I-]", "note": "[drawing 35, 1-methyl-6-[(E)-2-(1,3,3-trimethyl-3H-indolium-2-yl)vinyl]quinolinium iodide trifluoromethanesulfonate]", "values": [{"measurement": "solubility", "setting": "Solubility in water", "result": "≥ 15", "unit": "mM"}, {"measurement": "Absorbance λmax after adding glucose", "setting": "[2]", "result": 516, "unit": "nm"}, {"measurement": "UV/Vis reduced form, λmax after reduction with NADH", "setting": "[3]", "result": 517, "unit": "nm"}]}
{"smiles": "C[N+]1=C(/C=C/c2cc3ccccc3[n+](C)c2)C(C)(C)c2ccccc21.O=S(=O)([O-])C(F)(F)F.[I-]", "note": "[XXIV, 1-methyl-3-[(E)-2-(1,3,3-trimethyl-3H-indolium-2-yl)ethenyl]quinolinium iodide trifluoromethanesulfonate]", "values": [{"measurement": "Colour change of the solution treated with ascorbate", "setting": "[4]", "result": "did not change color"}, {"measurement": "solubility", "setting": "Solubility in water", "result": "≥ 10", "unit": "mM"}, {"measurement": "Colour change of the solution treated with NADH", "setting": "[5]", "result": "changed rapidly from nearly colorless to pink"}, {"measurement": "Turnover rates with NADH compared with ascorbate", "setting": "[5]", "result": "much higher than with ascorbate"}, {"measurement": "Fluorescence emission λmax after adding NADH", "setting": "[6]", "result": 560, "unit": "nm"}, {"measurement": "Time after addition of NADH after which no further color change could be measured", "setting": "[3]; 0.5 mM indicator, 20 μM NADH, 50 mM phosphate buffer pH 7", "result": 52.5, "unit": "s"}, {"measurement": "UV/Vis reduced form, λmax after reduction with NADH", "setting": "[3]", "result": 535, "unit": "nm"}, {"measurement": "Fluorescence intensity, viable vs dead HEK-293 cells", "setting": "HEK-293 cells", "result": "much higher in viable cells than in dead cells"}, {"measurement": "Fluorescence intensity in viable HEK-293 cells", "setting": "HEK-293 cells; 10 mM PBS pH 7, 37 C, 611 nm, excitation 561 nm", "result": "fluorescence intensity was enhanced"}, {"measurement": "Cellular uptake in viable HEK-293 cell", "setting": "HEK-293 cells; confocal image", "result": "showed cellular uptake"}, {"measurement": "Fluorescence intensity in paraformaldehyde killed HEK-293 cells", "setting": "HEK-293 cells; 4% paraformaldehyde killed cells, 10 mM PBS pH 7, 37 C", "result": "did not show enhancement in fluorescence intensity"}, {"measurement": "Time for which treated cells retained viability", "setting": "HEK-293 cells; viable HEK-293 cells", "result": "at least 24 h"}, {"measurement": "Extinction coefficient ε of the reduced form", "setting": "[7]", "result": 69.3, "unit": "mM⁻¹ cm⁻¹"}]}
{"smiles": "C[N+]1=C(/C=C/c2c[n+](C)cc3ccccc23)C(C)(C)c2ccccc21.O=S(=O)([O-])C(F)(F)F.[I-]", "values": [{"measurement": "Reduction potential", "setting": "[1]", "result": "−424", "unit": "mV"}]}
{"smiles": "COS(=O)(=O)[O-].C[n+]1cccc2cc(/C=C/C(=O)c3ccccc3)ccc21", "note": "[MOPPQ, 1-Methyl-6-((E)-3-oxo-3-phenyl-propenyl)-quinolinium methosulfate]", "values": [{"measurement": "Colour change of the solution treated with ascorbate", "setting": "[4]", "result": "showed only a pale orange color"}, {"measurement": "Colour change of the solution treated with NADH", "setting": "[5]", "result": "changed rapidly from nearly colorless to orange"}, {"measurement": "Turnover rates with NADH compared with ascorbate", "setting": "[5]", "result": "much higher than with ascorbate"}]}
{"smiles": "CC[n+]1cc(/C=C/C2=[N+](C)c3ccccc3C2(C)C)c2ccccc2c1.O=S(=O)([O-])C(F)(F)F.[I-]", "values": [{"measurement": "Reduction potential", "setting": "[1]", "result": "−454", "unit": "mV"}]}
{"smiles": "C[N+]1=C(/C=C/c2cc3ccccc3[n+](C)c2)C(C)(C)c2ccccc21.O=S(=O)([O-])C(F)(F)F.[I-]", "note": "[drawing 50]", "values": [{"measurement": "Reduction potential", "setting": "[1]", "result": "−534", "unit": "mV"}]}
{"smiles": "CC[n+]1cc(/C=C/C2=[N+](C)c3ccccc3C2(C)C)cc2ccccc21.O=S(=O)([O-])C(F)(F)F.[I-]", "values": [{"measurement": "Reduction potential", "setting": "[1]", "result": "−524", "unit": "mV"}]}
{"smiles": "C[N+]1=C(/C=C/c2ccc3c(c2)nc2ccccc2[n+]3C)C(C)(C)c2ccccc21.O=S(=O)([O-])C(F)(F)F.[I-]", "values": [{"measurement": "UV-Vis λmax after reduction with NADH", "setting": "[3]", "result": "LC-MS m/z 379.3 (M^+) HRMS m/z 378.1970 ([M − H]^+) UV-Vis (water) after reduction with NADH: λmax 740 nm;"}]}
{"smiles": "CCOc1cccc2c1nc1c(/C=C/C3=[N+](C)c4ccccc4C3(C)C)cccc1[n+]2C.[Cl-].[Cl-]", "note": "[9-ethoxy-10-methyl-1-[(E)-2-(1,3,3-trimethyl-3H-indolium-2-yl)vinyl]phenazinium]", "values": [{"measurement": "solubility", "setting": "Solubility in water", "result": "≥ 7", "unit": "mM"}]}
{"smiles": "C[N+]1=C(/C=C/c2cccc3c2nc2ccccc2[n+]3C)C(C)(C)c2ccccc21.O=S(=O)([O-])C(F)(F)F.[I-]", "values": [{"measurement": "solubility", "setting": "Solubility in water", "result": "≥ 4", "unit": "mM"}]}
{"smiles": "C[N+]1=C(/C=C/c2ccc(-c3ccc(/C=C/C4=[N+](C)c5ccccc5C4(C)C)c[n+]3C)[n+](C)c2)C(C)(C)c2ccccc21.O=S(=O)([O-])C(F)(F)F.O=S(=O)([O-])C(F)(F)F.[I-].[I-]", "values": [{"measurement": "solubility", "setting": "Solubility in water", "result": "≥ 15", "unit": "mM"}]}
{"smiles": "CC[n+]1cc(/C=C/C2=[N+](C)c3ccccc3C2(C)C)cc2ccccc21", "values": [{"measurement": "solubility", "setting": "Solubility in water", "result": "≥ 4", "unit": "mM"}]}
{"smiles": "C[N+]1=C(/C=C/c2ccc[n+](C)c2)C(C)(C)c2ccccc21", "values": [{"measurement": "solubility", "setting": "Solubility in water", "result": "≥ 114", "unit": "mM"}]}
{"smiles": "CC[n+]1cc(/C=C2\\CCC[N+]3=C2C(C)(C)c2ccccc23)cc2ccccc21", "values": [{"measurement": "solubility", "setting": "Solubility in water; Cl^− form", "result": "≥ 0.3", "unit": "mM"}]}
{"smiles": "C[N+]1=C(/C=C/c2ccc[n+](C)c2)C(C)(C)c2ccccc21.O=S(=O)([O-])C(F)(F)F.[I-]", "values": [{"measurement": "Reduction potential", "setting": "[1]", "result": "−564", "unit": "mV"}]}
{"smiles": "C[N+]1=C(/C=C/c2cccc3c2ncc[n+]3C)C(C)(C)c2ccccc21.O=S(=O)([O-])C(F)(F)F.[I-]", "values": [{"measurement": "solubility", "setting": "Solubility in water", "result": "≥ 9", "unit": "mM"}, {"measurement": "UV-Vis λmax after reduction with NADH", "setting": "[3]", "result": 535, "unit": "nm"}]}
{"smiles": "C[N+]1=C(/C=C/c2c[n+](C)cc3ccccc23)C(C)(C)c2ccccc21", "values": [{"measurement": "solubility", "setting": "Solubility in water", "result": "≥ 25", "unit": "mM"}]}
